pIC50: −log10 of the molar value.

The target of this assay is hOGG1 (Homo sapiens, UniProt O15527). Briefly: Biochemical fluorescence assay to measure enzymatic activity of hOGG1 (OGG1/APEX IC50). Also noted: Protein His-hOGG1 (12-323) was prepared; His (N); host or cells: E. coli. To be noted: 1 nM OGG1+2 nM APEX+6 nM dsDNA (8-oxo-dG substrate); pH 7.5; RT 40 min; read-out: OGG1/APEX IC50. As to the method: Biological Example 1: Biochemical Assay to Measure Enzymatic Activity of hOGG1 (OGG1/APEX IC50)
Chain of hOGG1 (O15527 12-323): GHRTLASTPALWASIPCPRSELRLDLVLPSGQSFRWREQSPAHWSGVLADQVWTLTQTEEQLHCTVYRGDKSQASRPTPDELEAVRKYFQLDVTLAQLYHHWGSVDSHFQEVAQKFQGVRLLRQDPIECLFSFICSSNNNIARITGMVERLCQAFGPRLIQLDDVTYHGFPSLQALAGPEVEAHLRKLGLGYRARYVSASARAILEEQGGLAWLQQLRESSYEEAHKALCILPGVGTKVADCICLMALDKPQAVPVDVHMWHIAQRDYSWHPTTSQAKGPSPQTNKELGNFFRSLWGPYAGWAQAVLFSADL
The reported fluorescence-based assay (Donley et al ACS Chem Biol 2015; 10 (10), 2334-2343) was modified to include hAPE1/APEX1 protein. The oligonucleotide substrate with 8-oxo-dG lesion at X was prepared (LGC Biosearch, Petaluma, CA):
Protein His-hOGG1 (12-323) was prepared by Chempartner Corporation via E. coliexpression and purification by Ni-NTA and S200 column to afford 95% purity by SDS-PAGE and SEC-HPLC analysis and hAPE1/APEX1 was purchased (SinoBiological). The assay was run in 384-well plates following the general procedure: (1) compound dilution; (2) addition of hOGG1/APEX1 to compound wells; (3) addition of DNA substrate to compound wells; (4) read Ex520/Em600 (TAMRA) fluorescence signal after 40 minutes; (5) calculate % inhibition/compound concentration; (6) calculate dose-response curve and IC50 value.
• (1) 20 mM of compound solution was prepared in DMSO; • (2) Compounds were diluted to 10 mM in DMSO in ECHO Source plate (Labcyte PP-0200), by mixing […] DMSO; • (3) 4× dilution of compounds, for 10 points, by mixing […] DMSO; and • (4) Dispensed 150 nL compounds to assay plate (Corning 3573) in column 3-22. Dispensed 150 nL DMSO to Min and Max control wells in column 1-2 and column 23-24.
• (1) Assay buffer was prepared (20 mM Tris pH 7.5, 100 mM KCl, 0.1% BSA, 0.01% Tween). • (2) […] buffer was added to Min control wells (Column 1-2). • (3) Enzyme was diluted to 2× with buffer (2 nM OGG1+4 nM APEX1). Dispensed […] (except Min control wells). Shake at 500 rpm at RT for 20 min. • (4) DNA substrate diluted to 2× with buffer (12 nM). Dispensed […]. Final concentration: 1 nM OGG1+2 nM APEX+6 nM dsDNA. Shake at RT for 40 min. • (5) Ex520/Em600 (TAMRA) was read.
• (1) Calculated respective mean of Max and Min control wells. • (2) Converted data to percentage inhibition.
Inhibition (%)=(Max mean−value)/(Max mean−Min mean)×100% • (3) Calculated sigmoidal curve (3-parameter) and IC50 (using GraphPad Prism software).
Regarding `COc1cc(NC(=O)[C@H]2CC[C@@H](N3Cc4c(C)cc(CNC(C)=O)cc4NC3=O)CC2)ccc1C` [Example 27, (1s,4s)-4-(7-(Acetamidomethyl)-5-methyl-2-oxo-1,2-dihydroquinazolin-3(4H)-yl)-N-(3-methoxy-4-methylphenyl)cyclohexanecarboxamide], the pIC50 is > 7.00. Under `COc1cc(NC(=O)[C@H]2CC[C@@H](N3Cc4c(C)cc(N5CC(OC)C5)cc4NC3=O)CC2)ccc1C` [Example 29, (1s,4s)-N-(3-Methoxy-4-methylphenyl)-4-(7-(3-methoxyazetidin-1-yl)-5-methyl-2-oxo-1,2-dihydroquinazolin-3(4H)-yl)cyclohexanecarboxamide] stands > 7.00. For `COc1cc(NC(=O)[C@H]2CC[C@@H](N3Cc4c(C)cc(C#N)cc4NC3=O)CC2)ccc1C` [Example 31, (1s,4s)-4-(7-Cyano-5-methyl-2-oxo-1,2-dihydroquinazolin-3(4H)-yl)-N-(3-methoxy-4-methylphenyl)cyclohexanecarboxamide] the value was > 7.00; for `COc1cc(NC(=O)[C@H]2CC[C@@H](N3Cc4c(C)cnc(Cl)c4NC3=O)CC2)ccc1C` [Example 32, (1s,4s)-4-(8-Chloro-5-methyl-2-oxo-1,2-dihydropyrido[3,4-d]pyrimidin-3(4H)-yl)-N-(3-methoxy-4-methylphenyl)cyclohexanecarboxamide], > 7.00. Under `COc1cc(NC(=O)[C@H]2CC[C@@H](N3Cc4c(C)cc(C5COC5)cc4NC3=O)CC2)ccc1C` [Example 33, (1s,4s)-N-(3-Methoxy-4-methylphenyl)-4-(5-methyl-7-(oxetan-3-yl)-2-oxo-1,2-dihydroquinazolin-3(4H)-yl)cyclohexanecarboxamide] stands > 7.00; under `COc1cc(NC(=O)[C@H]2CC[C@@H](N3Cc4c(C)ccc(N5CC(C)(C#N)C5)c4NC3=O)CC2)ccc1C` [Example 34, (1s,4s)-4-(8-(3-Cyano-3-methylazetidin-1-yl)-5-methyl-2-oxo-1,2-dihydroquinazolin-3(4H)-yl)-N-(3-methoxy-4-methylphenyl)cyclohexanecarboxamide], 6.00 to 7.00. Turning to `COc1cc(NC(=O)[C@@H]2CC[C@@H](N3Cc4c(C)cc(Br)cc4NC3=O)C2)ccc1C` [Example 36, (1R,3R)-3-(7-Bromo-5-methyl-2-oxo-1,2-dihydroquinazolin-3(4H)-yl)-N-(3-methoxy-4-methylphenyl)cyclopentanecarboxamide], the pIC50 was 5.00 to 6.00. Under `COc1cc(NC(=O)[C@H]2CC[C@@H](N3Cc4c(C)cncc4NC3=O)CC2)ccc1C` [Example 37, (1s,4s)-N-(3-Methoxy-4-methylphenyl)-4-(5-methyl-2-oxo-1,2-dihydropyrido[3,4-d]pyrimidin-3(4H)-yl)cyclohexanecarboxamide] stands > 7.00. With `COc1cc(NC(=O)[C@H]2CC[C@@H](N3Cc4c(C)ccc(N5CC(OC)C5)c4NC3=O)CC2)ccc1C` [Example 38, (1s,4s)-N-(3-Methoxy-4-methylphenyl)-4-(8-(3-methoxyazetidin-1-yl)-5-methyl-2-oxo-1,2-dihydroquinazolin-3(4H)-yl)cyclohexanecarboxamide], the pIC50 is > 7.00.

Consider `COc1cc(NC(=O)[C@H]2CC[C@@H](N3Cc4c(C)ccc(C5CC5)c4NC3=O)CC2)ccc1C` [Example 39, (1s,4s)-4-(8-Cyclopropyl-5-methyl-2-oxo-1,2-dihydroquinazolin-3(4H)-yl)-N-(3-methoxy-4-methylphenyl)cyclohexanecarboxamide], for which the pIC50 is > 7.00. For `COc1cc(NC(=O)[C@H]2CC[C@@H](N3Cc4c(ccc(OCCN(C)C)c4C)NC3=O)CC2)ccc1C` [Example 40, (1s,4s)-4-(6-(2-(Dimethylamino)ethoxy)-5-methyl-2-oxo-1,2-dihydroquinazolin-3(4H)-yl)-N-(3-methoxy-4-methylphenyl)cyclohexanecarboxamide] the value was 5.00 to 6.00; for `COc1cc(NC(=O)[C@H]2CC[C@@H](N3Cc4c(ccc(N5CCC5)c4C)NC3=O)CC2)ccc1C` [Example 42, (1s,4s)-4-(6-(Azetidin-1-yl)-5-methyl-2-oxo-1,2-dihydroquinazolin-3(4H)-yl)-N-(3-methoxy-4-methylphenyl)cyclohexanecarboxamide], 6.00 to 7.00; for `COc1cc(NC(=O)[C@H]2CC[C@@H](N3Cc4c(ccnc4C)NC3=O)CC2)ccc1C` [Example 43, (1s,4s)-N-(3-Methoxy-4-methylphenyl)-4-(5-methyl-2-oxo-1,2-dihydropyrido[4,3-d]pyrimidin-3(4H)-yl)cyclohexanecarboxamide], > 7.00.

For the compound `COc1cc(NC(=O)[C@H]2CC[C@@H](N3Cc4c(ccc(N)c4C)NC3=O)CC2)ccc1C` [Example 46, (1s,4s)-4-(6-Amino-5-methyl-2-oxo-1,2-dihydroquinazolin-3(4H)-yl)-N-(3-methoxy-4-methylphenyl)cyclohexanecarboxamide], the pIC50 was 5.00 to 6.00. Under `COCc1ccc2c(c1C)CN([C@H]1CC[C@@H](C(=O)Nc3ccc(C)c(OC)c3)CC1)C(=O)N2` [Example 48, (1s,4s)-N-(3-Methoxy-4-methylphenyl)-4-(6-(methoxymethyl)-5-methyl-2-oxo-1,2-dihydroquinazolin-3(4H)-yl)cyclohexanecarboxamide] stands 5.00 to 6.00. As for `COc1cc(NC(=O)[C@H]2CC[C@@H](N3Cc4c(ccc(OC5CNC5)c4C)NC3=O)CC2)ccc1C` [Example 49, (1s,4s)-4-(6-(Azetidin-3-yloxy)-5-methyl-2-oxo-1,2-dihydroquinazolin-3(4H)-yl)-N-(3-methoxy-4-methylphenyl)cyclohexanecarboxamide], the pIC50 was 6.00 to 7.00.

For `COc1cc(NC(=O)[C@H]2CC[C@@H](N3Cc4c(ccc(OCCN5CCOCC5)c4C)NC3=O)CC2)ccc1C` [Example 50, (1s,4s)-N-(3-Methoxy-4-methylphenyl)-4-(5-methyl-6-(2-morpholinoethoxy)-2-oxo-1,2-dihydroquinazolin-3(4H)-yl)cyclohexanecarboxamide], the pIC50 was 5.00 to 6.00. Under `COc1cc(NC(=O)[C@H]2CC[C@@H](N3Cc4c(ccc(OC)c4C)NC3=O)CC2)ccc1C` [Example 51, (1s,4s)-N-(3-Methoxy-4-methylphenyl)-4-(6-methoxy-5-methyl-2-oxo-1,2-dihydroquinazolin-3(4H)-yl)cyclohexanecarboxamide] stands 6.00 to 7.00. Regarding `COc1cc(NC(=O)[C@H]2CC[C@@H](N3Cc4c(C)ccc(CN(C)C)c4NC3=O)CC2)ccc1C` [Example 52, (1s,4s)-4-(8-((Dimethylamino)methyl)-5-methyl-2-oxo-1,2-dihydroquinazolin-3(4H)-yl)-N-(3-methoxy-4-methylphenyl)cyclohexanecarboxamide], the pIC50 is > 7.00. `C=Cc1ccc2c(c1C)CN([C@H]1CC[C@@H](C(=O)Nc3ccc(C)c(OC)c3)CC1)C(=O)N2` [Example 53, (1s,4s)-N-(3-methoxy-4-methylphenyl)-4-(5-methyl-2-oxo-6-vinyl-1,2-dihydroquinazolin-3(4H)-yl)cyclohexanecarboxamide]: the pIC50 is 5.00 to 6.00. Consider `COc1cc(NC(=O)[C@H]2CC[C@@H](N3Cc4c(C)ccc(CO)c4NC3=O)CC2)ccc1C` [Example 54, (1s,4s)-4-(8-(Hydroxymethyl)-5-methyl-2-oxo-1,2-dihydroquinazolin-3(4H)-yl)-N-(3-methoxy-4-methylphenyl)cyclohexanecarboxamide], for which the pIC50 was > 7.00.

Source of the values: patent publication US20260317356A1, “SMALL MOLECULE MODULATORS OF OGG1” (AZKARRA THERAPEUTICS, INC., priority 2023, published 2026).
